In patent US20040191311A1, “Use of methyltestosterone as a drug for treatment of human papilloma virus infections” (priority 2002, published 2004):
Entries after “also recorded” stand apart in the source; their conditions may differ.

Experiments:
[1] = system: verruca planae caused by HPV; test: Clinical treatment of verruca planae patients with methyltestosterone tablets; assay type: in vivo, human; details: for outcome at follow-up visit: 8 weeks later
[2] = system: condyloma acuminatum caused by HPV; test: Clinical treatment of condyloma acuminatum patients with methyltestosterone tablets after operation, laser or freezing; assay type: in vivo, human; details: for relapse of lesions: in 6 months
Experimental: The study protocol using methyltestosterone as a treatment for verruca planae and condyloma acuminatum caused by HPV includes:
Some of the patients were the relapsed ones after the treatment by transferor, interferon, and interleukins.
Methyltestosterone is a tablet, manufactured by Southwest Pharmaceutical Company and the Second Pharmaceutical Company of Chengdu, China. The dosage was 5 mg/tablet.
Methyltestosterone was administered orally, 1 tablet/time, three times/day, and 5 days consecutively, followed by 1 tablet/time, two times/day, for additional 5-10 days consecutively.
One of the following would be considered as cure: A) there were no new vegetations at or around the lesion for at least six months after administration of methyltestosterone for 10-15 days following treatment with physical, chemical, and operational therapies. B) the vegetations reappeared in two months after operations and were positive for the acetowhitening test, but regressed for at least 6 months after administration of methyltestosterone for 10-15 days.

[3] = of 96 cases with facial verruca planae
[4] = out of 7 cases with hand and neck verruca planae

**Q.** How did the time to cure ([1]; Case 1: facial verruca planae 2 years, 1 tablet twice daily for 3 days) turn out when `CC12CCC(=O)C=C1CCC1C2CCC2(C)C1CCC2(C)O` (stereo not drawn) [methyltestosterone] was run?
**A.** 2 weeks

**Q.** What about the “time until all lesions regressed” value ([1]; Case 2: facial verruca planae 1 year, 1 tablet twice daily for 3 days) of the same compound?
**A.** 4 weeks

**Q.** What about the “time until all lesions regressed” value ([1]; Case 3: facial verruca planae 4 years, 1 tablet twice daily for 3 days) of the same compound?
**A.** 4 weeks

**Q.** And the lesions regressed ([1]; Case 4: facial verruca planae 13 years, 1 tablet twice daily for 5 days, in 6 weeks)?
**A.** 90%

**Q.** What about the “time until lesions on the face regressed” value ([1]; Case 5: hand and neck verruca planae 10 years, 1 tablet twice daily for 10 days) of the same compound?
**A.** 2 months

**Q.** What about the time to cure ([1]; Case 6: facial verruca planae 3 months, 1 tablet once daily for 5 days plus Vitamin B2, Vitamin B6 and brimstone lotion) of the same compound?
**A.** 4 weeks

**Q.** What about the “outcome at follow-up visit” value ([1]; Case 7: facial verruca planae, 1 tablet twice daily for 5 days) of the same compound?
**A.** cured

**Q.** And the “outcome at follow-up visit” value ([1]; Case 8: facial verruca planae one year, 1 tablet once daily for 5 days)?
**A.** cured

**Q.** And the outcome of lesions ([1]; Case 9: facial verruca planae relapsed after laser, 1 tablet three times daily for 5 days)?
**A.** regressed mostly

**Q.** What about the “time until papules regressed completely” value ([1]; Case 10: flat papules on forehead and blepharons, 1 tablet three times daily for 4 days) of the same compound?
**A.** 3 weeks

**Q.** What about the non-responsive rate ([1]; facial verruca planae, 96 cases) of the same compound?
**A.** 2%

**Q.** What about the cure rate ([1]; facial verruca planae, 96 cases, 5 mg tablet hypoglossally, two or three times/day, 3-5 days, cure = all facial exanthems regressed) of the same compound?
**A.** 88.5%

**Q.** And the effective rate ([1]; facial verruca planae, 96 cases, effective = 70% of exanthems disappeared)?
**A.** 9.4%

**Q.** And the effective rate ([1]; hand and neck verruca planae, 7 cases)?
**A.** 86%

**Q.** What about the cases cured [1, 3] of the same compound?
**A.** 85 cases

**Q.** And the cases effective [1, 3]?
**A.** 9 cases

**Q.** And the “cases non-responsive to the medication” value [1, 3]?
**A.** 2 cases

**Q.** What about the cases cured [1, 4] of the same compound?
**A.** 1 cases

**Q.** What about the “cases regressed after 5 weeks following the treatment” value [1, 4] of the same compound?
**A.** 3 cases

**Q.** And the cases remaining non-responsive [1, 4]?
**A.** 1 cases

**Q.** And the “relapse of condyloma acuminatum” value ([2]; 61 patients, methyltestosterone 10-15 days following operations, follow-up 6 months to 1 year)?
**A.** None of the patients relapsed; also recorded: no relapse case; also recorded: no relapses occurred

**Q.** And the relapse of lesions ([2]; Case 11: penis, laser, then 1 tablet three times daily 5 days and twice daily 5 days)?
**A.** did not relapse

**Q.** And the relapse of lesions ([2]; Case 12: anus, CO2 laser, then 1 tablet three times daily 5 days and twice daily 10 days)?
**A.** did not relapse

**Q.** What about the new vegetations ([2]; Case 13: vulva and anus, CO2 laser, then 1 tablet three times daily 5 days and twice daily 5 days, in 4 weeks) of the same compound?
**A.** no new vegetations appearing

**Q.** And the relapse ([2]; Case 14: anus, CO2 laser, then 1 tablet twice daily for 10 days, in a year)?
**A.** No relapse occurred

**Q.** And the “outcome of wound and vegetations” value ([2]; Case 15: prepuce, CO2 laser, then 1 tablet three times daily for 10 days, wound healed in 4 weeks)?
**A.** no scars left nor new vegetations growing

**Q.** What about the “time until wound healed with negative acetowhitening test” value ([2]; Case 16: after the methyltestosterone treatment) of the same compound?
**A.** 6 weeks

**Q.** And the relapse ([2]; Case 16: relapsed after freezing and interferon, CO2 laser, then 1 tablet three times daily 5 days and twice daily 10 days, in one year)?
**A.** no relapse occurred

**Q.** What about the “evaluation by Chinese Ministry of Health and WHO criteria for condyloma acuminatum” value ([2]; all condyloma acuminatum cases) of the same compound?
**A.** all cases are considered as cure

**Q.** What about the “outcome of the two cases relapsed after operation and cytokine (interleukin II) treatment” value ([2]; two relapsed cases, then methyltestosterone treatment) of the same compound?
**A.** cured; also recorded: healed the lesions
